Test results from patent US20140295512A1, “Ketol-Acid Reductoisomerases With Improved Performance Properties” (CALIFORNIA INSTITUTE OF TECHNOLOGY, priority 2011, published 2014).
Values joined by “and” are separate entries in the source; they are usually repeats but may differ in a detail not shown here. Equal values may be shown once.

Columns and labels:
Ec_ilvC^P2D1-A1 = test: NKR assay in microtiter plates to measure inhibition by DHIV; format: biochemical, E. coli; conditions: 200 μM NADH, varied (S)-2-acetolactate, pH 7; read-out: K of Ec_ilvC^P2D1-A1 for DHIV (inhibition constant)
Procedure: NKR activity was assayed kinetically by monitoring the decrease in NADH concentration by measuring the absorbance at 340 nm. A reaction buffer was prepared containing 250 mM potassium phosphate pH 7, 1 mM DTT, 200 μM NADH, 2.5 mM (S)-2-acetolactate, and 10 mM MgCl2. Ten μL purified enzyme were placed into a microtiter plate. The reaction was initiated by addition of 90 μL of the reaction buffer. The kinetics with respect to substrate conversion in presence of the inhibitor were determined by varying the substrate concentration (5.1, 2.55, 1.275, 0.638, 0.319, 0.159, and 0.0799 mM), while keeping the cofactor concentration constant at 200 μM. The inhibition constant was measured by repeating these measurements with different amounts of inhibitor (0, 0.07, 0.13, 0.26, 0.51, and 1.07 mM, final concentrations).

E. coli KARI = E. coli KARI (Escherichia coli, UniProt P05793); test: KARI assay in 100-μL scale to measure IC50 in presence of R-DHIV; format: biochemical; conditions: for Ki: calculated via Cheng-Prusoff equation
Sequence of E. coli KARI (P05793 whole entry): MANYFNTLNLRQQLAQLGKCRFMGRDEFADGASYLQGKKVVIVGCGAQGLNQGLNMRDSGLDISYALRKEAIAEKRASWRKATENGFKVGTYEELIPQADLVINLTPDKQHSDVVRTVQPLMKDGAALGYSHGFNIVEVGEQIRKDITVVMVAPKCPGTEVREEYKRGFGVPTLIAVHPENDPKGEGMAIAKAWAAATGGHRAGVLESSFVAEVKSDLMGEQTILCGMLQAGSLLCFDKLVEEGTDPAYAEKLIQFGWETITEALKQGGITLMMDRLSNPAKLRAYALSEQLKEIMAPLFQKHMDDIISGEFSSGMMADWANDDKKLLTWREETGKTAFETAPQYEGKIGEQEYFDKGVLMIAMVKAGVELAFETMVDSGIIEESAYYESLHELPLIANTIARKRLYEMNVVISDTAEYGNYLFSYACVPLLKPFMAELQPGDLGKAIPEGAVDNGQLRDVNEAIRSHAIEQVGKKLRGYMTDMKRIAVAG
Procedure: (§1) Assay buffers were prepared containing 250 mM potassium phosphate pH 7.0, 1 mM DTT, 10 mM MgCl2, 2.5 mM acetolactate, 200 μM NADPH, and increasing concentrations of R-DHIV (0-85.5 mM (final concentrations). Ten μL purified enzyme were placed into a flat-bottom assay plate (Evergreen Scientific). The reactions were initiated by addition of 90 μL assay buffer. The change in absorbance at 340 nm was monitored over 1 min in a plate reader (TECAN).

S. exigua KARI = S. exigua KARI (Slackia exigua, UniProt D0WGK0); test: as above; format: biochemical
Sequence of S. exigua KARI (D0WGK0 whole entry): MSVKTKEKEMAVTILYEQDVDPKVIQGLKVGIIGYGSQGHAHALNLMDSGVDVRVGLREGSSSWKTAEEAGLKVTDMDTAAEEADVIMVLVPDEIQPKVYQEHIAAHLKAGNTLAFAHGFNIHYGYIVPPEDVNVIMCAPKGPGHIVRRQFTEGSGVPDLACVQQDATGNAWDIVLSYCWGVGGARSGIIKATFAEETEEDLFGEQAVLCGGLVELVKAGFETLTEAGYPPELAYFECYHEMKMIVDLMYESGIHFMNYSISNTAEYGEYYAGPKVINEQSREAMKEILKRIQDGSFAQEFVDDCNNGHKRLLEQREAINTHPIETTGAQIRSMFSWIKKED
Procedure: as §1

L. lactis KARI = L. lactis KARI (Lactococcus lactis subsp. lactis, UniProt Q02138); test: as above; format: biochemical
Sequence of L. lactis KARI (Q02138 whole entry): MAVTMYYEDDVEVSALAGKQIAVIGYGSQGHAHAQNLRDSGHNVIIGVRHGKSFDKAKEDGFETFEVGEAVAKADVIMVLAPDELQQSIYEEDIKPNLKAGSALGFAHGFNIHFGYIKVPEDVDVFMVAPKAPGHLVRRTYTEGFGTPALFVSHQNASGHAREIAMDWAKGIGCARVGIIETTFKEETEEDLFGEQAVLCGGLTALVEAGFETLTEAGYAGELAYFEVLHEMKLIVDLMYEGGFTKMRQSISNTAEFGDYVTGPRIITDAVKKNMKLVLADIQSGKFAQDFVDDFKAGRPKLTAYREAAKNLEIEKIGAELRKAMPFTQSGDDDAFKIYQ
Procedure: as §1

[1] = 2.5 mM acetolactate, 200 μM NADPH, pH 7.0
[2] = calculated via Cheng-Prusoff equation

Structure (SMILES) | Ki (Ec_ilvC^P2D1-A1) [µM] | Ki (E. coli KARI) [µM] | IC50 (E. coli KARI; [1]) | IC50 on S. exigua KARI, times higher than IC50 of the E. coli KARI (S. exigua KARI) [fold] | IC50 on S. exigua KARI, times higher than IC50 of the L. lactis KARI (S. exigua KARI) [fold] | Ki on S. exigua KARI, times higher than Ki calculated for E. coli KARI (S. exigua KARI) [fold] | IC50 (S. exigua KARI; [1]) | Ki (S. exigua KARI; [2]) [µM] | IC50 (L. lactis KARI; [1]) [µM] | Ki (L. lactis KARI; [2]) [µM]
CC(C)(O)C(O)C(=O)O (centres unmarked) [DHIV, 2,3-dihydroxyisovalerate] | 45 | 100 | – | – | – | – | – | – | – | –
CC(C)(O)[C@@H](O)C(=O)O [R-DHIV] | – | 100 | 1000 µM and 1100 µM | 27 | 10 | 17 | 26700 µM and 27000 µM | 1700 | 2500 ± 700 | 1700
